Experimental data reported in EP4810040A2, “INHIBITORS OF APOL1 AND METHODS OF USING SAME” (priority 2020, dated 2022).
Read-outs that look alike come from different tables or passages of the source.

Biological target: T1, APOL1 G1 (Homo sapiens, UniProt O14791, I384M/S342G)
T1 sequence (O14791 28-398 S342G/I384M): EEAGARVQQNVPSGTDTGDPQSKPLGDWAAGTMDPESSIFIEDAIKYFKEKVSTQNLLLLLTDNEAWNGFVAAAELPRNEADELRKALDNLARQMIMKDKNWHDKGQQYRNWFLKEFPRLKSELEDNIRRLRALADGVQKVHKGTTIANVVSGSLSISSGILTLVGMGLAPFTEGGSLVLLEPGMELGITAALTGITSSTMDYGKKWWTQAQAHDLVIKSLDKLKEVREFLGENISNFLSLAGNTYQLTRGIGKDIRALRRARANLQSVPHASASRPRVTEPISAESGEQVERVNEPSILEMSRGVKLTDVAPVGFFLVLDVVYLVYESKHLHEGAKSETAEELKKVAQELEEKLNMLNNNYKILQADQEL
Experiment: MultiTox-Fluor Multiplex Cytotoxicity Assay, tet-inducible APOL1 G1 T-REx-HEK293 cells
Type: cell-based
Parameters: expressed in transfected cells; host or cells: T-REx HEK293, clone G1 DC3.25 (pAAVS1-Puro-APOL1 G1)
Conditions: for Emax: read-out: Multi-Tox Assay Max Activity (%)
Method in brief: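 T-REx-HEK293 cells carrying tet-inducible APOL1 G1 induced with 50 ng/mL tet alongside compound (top 10 µM, 10-point 3-fold, duplicate) for 24 h at 37 °C. MultiTox-Fluor dead/live protease fluorescence ratio read after 30 min; normalized to no-tet (100% viability) and tet-treated (0%) controls, then curve-fitted.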

[1] = HEK293, Multi-Tox Assay, APOL1 variant (G0/G1/G2) of the HEK293 cells not given, read-out: Multi-Tox Assay IC90
[2] = Multi-Tox Assay, APOL1 variant not given

Cc1nn(CCO)cc1[C@@H]1C[C@]2(C[C@H](C)N1)OCCc1cc(Cl)sc12 (racemic) [Compound 158]
IC90 [1]: > 500 nM | Multi-Tox Assay Max Activity (%) [2]: 90.4%

Cc1nc([C@@H]2C[C@]3(C[C@H](C)N2)OCCc2cc(Cl)sc23)cn1C (racemic) [Compound 159]
IC90 [1]: > 500 nM | Multi-Tox Assay Max Activity (%) [2]: 92.2%

C[C@H]1C[C@@]2(C[C@@H](c3cnccc3O)N1)OCCc1cc(Cl)sc12 (racemic) [Compound 160]
IC90 [1]: > 500 nM | Multi-Tox Assay Max Activity (%) [2]: 94.3%

Cc1nc[nH]c1[C@@H]1C[C@]2(C[C@H](C)N1)OCCc1cc(Cl)sc12 (racemic) [Compound 161]
IC90 [1]: > 500 nM | Multi-Tox Assay Max Activity (%) [2]: 92.4%

CC(C)c1c[nH]c([C@@H]2C[C@]3(C[C@H](C)N2)OCCc2cc(Cl)sc23)n1 (racemic) [Compound 162]
IC90 [1]: > 500 nM | Multi-Tox Assay Max Activity (%) [2]: 92.0%

C[C@H]1C[C@@]2(C[C@@H](c3cnn4c3OCCC4)N1)OCCc1cc(Cl)sc12 (racemic) [Compound 163]
IC90 [1]: > 500 nM | Multi-Tox Assay Max Activity (%) [2]: 92.7%

Cc1nccnc1[C@@H]1C[C@]2(C[C@H](C)N1)OCCc1cc(Cl)sc12 (racemic) [Compound 164]
IC90 [1]: > 500 nM | Multi-Tox Assay Max Activity (%) [2]: 91.7%

C[C@H]1C[C@@]2(C[C@@H](c3ncc(C(F)(F)F)[nH]3)N1)OCCc1cc(Cl)sc12 (racemic) [Compound 165]
IC90 [1]: > 500 nM | Multi-Tox Assay Max Activity (%) [2]: 92.0%

COc1cccc([C@@H]2C[C@]3(C[C@H](C)N2)OCCc2cc(Cl)sc23)c1O (racemic) [Compound 166]
IC90 [1]: > 500 nM | Multi-Tox Assay Max Activity (%) [2]: 96.7%

Cc1cccnc1[C@@H]1C[C@]2(C[C@H](C)N1)OCCc1cc(Cl)sc12 (racemic) [Compound 167]
IC90 [1]: > 500 nM | Multi-Tox Assay Max Activity (%) [2]: 89.7%

C[C@H]1C[C@@]2(C[C@@H](c3cccc4cn[nH]c34)N1)OCCc1cc(Cl)sc12 (racemic) [Compound 168]
IC90 [1]: > 500 nM | Multi-Tox Assay Max Activity (%) [2]: 89.0%

C[C@H]1C[C@@]2(C[C@@H](c3n[nH]c4ccccc34)N1)OCCc1cc(Cl)sc12 (racemic) [Compound 169]
IC90 [1]: > 500 nM | Multi-Tox Assay Max Activity (%) [2]: 86.8%

Cc1nc2c([C@@H]3C[C@]4(C[C@H](C)N3)OCCc3cc(Cl)sc34)cccc2o1 (racemic) [Compound 170]
IC90 [1]: > 500 nM | Multi-Tox Assay Max Activity (%) [2]: 89.7%

C[C@H]1C[C@@]2(C[C@@H](c3ncnn3C)N1)OCCc1cc(Cl)sc12 (racemic) [Compound 171]
IC90 [1]: > 500 nM | Multi-Tox Assay Max Activity (%) [2]: 71.8%

C[C@H]1C[C@@]2(C[C@@H](c3ncccc3O)N1)OCCc1cc(Cl)sc12 (racemic) [Compound 172]
IC90 [1]: > 500 nM | Multi-Tox Assay Max Activity (%) [2]: 52.0%

C[C@@H]1C[C@]2(C[C@H](C)N1)OCC(O)c1cc(Cl)sc12 (mixture of isomers) [Compound 205, (2R,6S)-2-chloro-2',6'-dimethyl-spiro[4,5-dihydrothieno[2,3-c]pyran-7,4'-piperidine]-4-ol]
IC90 (HEK293, read-out: Multi-Tox Assay IC90 (nM)): 50 to 500 nM | Emax: 99.3%

Cc1cc2c(s1)C1(CC(C)NC(c3cn(C)nn3)C1)OCC2 (single isomer, unassigned) [Compound 3]
IC90 [1]: < 50 nM | Emax [2]: 99.7%

CCc1cc2c(s1)CCOC21CC(C)NC(c2cn(C)nn2)C1 (single isomer, unassigned) [Compound 4]
IC90 [1]: < 50 nM | Emax [2]: 99.3%

CCc1cc2c(s1)C1(CC(C)NC(c3cn(C)nn3)C1)OCC2 (single isomer, unassigned) [Compound 6]
IC90 [1]: < 50 nM | Emax [2]: 99.7%

CCc1cc2c(s1)C(C)COC21C[C@@H](c2cn(C)nn2)N[C@@H](C)C1 (single isomer, unassigned) [Compound 10]
IC90 [1]: < 50 nM | Multi-Tox Assay Max Activity (%) [2]: 99.7%

CC1COC2(C[C@@H](c3cn(C)nn3)N[C@@H](C)C2)c2cc(Cl)sc21 (single isomer, unassigned) [Compound 12]
IC90 [1]: < 50 nM | Multi-Tox Assay Max Activity (%) [2]: 99.3%

C[C@H]1CC2(C[C@@H](c3cn(C)nn3)N1)OCC(C)(C)c1sc(Cl)cc12 (single isomer, unassigned) [Compound 15]
IC90 [1]: < 50 nM

C[C@H]1CC2(C[C@@H](c3cn(C)nn3)N1)OCC(C)(C)c1sc(C(F)(F)F)cc12 (single isomer, unassigned) [Compound 16]
IC90 [1]: 50 to 500 nM | Multi-Tox Assay Max Activity (%) [2]: 100.0%

C[C@H]1CC2(C[C@@H](c3cn(C)nn3)N1)OCCc1sc(Cl)cc12 (single isomer, unassigned) [Compound 173]
IC90 [1]: < 50 nM | Emax [2]: 99.5%

C[C@H]1CC2(CC(c3cn(C)cn3)N1)OCC(O)c1cc(Cl)sc12 (single isomer, unassigned) [Compound 178]
IC90 [1]: < 50 nM | Emax [2]: 99.7%

C[C@H]1C[C@@]2(C[C@@H](c3cn(C)nn3)N1)OCC(O)(C(F)F)c1cc(Cl)sc12 (single isomer, unassigned) [Compound 184]
IC90 [1]: 50 to 500 nM | Emax [2]: 99.3%

C[C@@H]1CC2(C[C@H](C)N1)OCCc1sc(C(F)(F)F)cc12 (single isomer, unassigned) [Compound 196]
IC90 [1]: 50 to 500 nM | Emax [2]: 99%

C[C@@H]1CC2(C[C@H](C)N1)OCCc1cc(Br)sc12 (single isomer, unassigned) [Compound 197]
IC90 [1]: 50 to 500 nM | Emax [2]: 99%

C[C@@H]1CC2(C[C@H](C)N1)OCCc1cc(C3CC(F)(F)C3)sc12 (single isomer, unassigned) [Compound 198]
IC90 [1]: 50 to 500 nM | Emax [2]: 98.7%

CCc1cc2c(s1)C1(C[C@@H](C)N[C@@H](C)C1)OCC2 (single isomer, unassigned) [Compound 199]
IC90 [1]: 50 to 500 nM | Emax [2]: 99.3%

CC(C)c1cc2c(s1)C1(C[C@@H](C)N[C@@H](C)C1)OCC2 (single isomer, unassigned) [Compound 200]
IC90 [1]: > 500 nM | Emax [2]: 97%

CC(C)Cc1cc2c(s1)C1(C[C@@H](C)N[C@@H](C)C1)OCC2 (single isomer, unassigned) [Compound 201]
IC90 [1]: > 500 nM | Emax [2]: 95%

C[C@@H]1CC2(C[C@H](C)N1)OCCc1cc(C3CCCCC3)sc12 (single isomer, unassigned) [Compound 202]
IC90 [1]: > 500 nM | Emax [2]: 94.7%

C[C@@H]1CC2(C[C@H](C)N1)OCCc1cc(CC(F)F)sc12 (single isomer, unassigned) [Compound 203]
IC90 [1]: < 50 nM | Emax [2]: 99.3%

C[C@@H]1CC2(C[C@H](C)N1)OCCc1cc(Cl)sc12 (single isomer, unassigned) [Compound 204]
IC90 [1]: 50 to 500 nM | Emax [2]: 99%

Clc1cc2c(s1)C1(C[C@@H](C3CC3)N[C@@H](C3CC3)C1)OCC2 (single isomer, unassigned) [Compound 206]
IC90 [1]: 50 to 500 nM | Emax [2]: 99.3%

C[C@@H]1CC2(C[C@H](C)N1)OCCc1cc(C(F)(F)F)sc12 (single isomer, unassigned) [Compound 207]
IC90 [1]: 50 to 500 nM | Emax [2]: 100%

C[C@@H]1CC2(C[C@H](C)N1)OCCc1c2sc(C(F)(F)F)c1CO (single isomer, unassigned) [Compound 208]
IC90 [1]: 50 to 500 nM | Emax [2]: 99.5%

CC1CC2(CC(C3CC3(F)F)N1)OCCc1cc(Cl)sc12 (single isomer, unassigned) [Compound 212]
IC90 [1]: < 50 nM | Emax [2]: 99%

COC(=O)[C@@H]1C[C@]2(C[C@@H](C)N1)OCCc1cc(Cl)sc12 (stereo in doubt) [Compound 209, methyl (2'S,6'R,7S)-2-chloro-6'-methyl-spiro[4,5-dihydrothieno[2,3-c]pyran-7,4'-piperidine]-2'-carboxylate]
IC90 [1]: > 500 nM | Emax [2]: 76.7%

C[C@H]1C[C@@]2(C[C@@H](c3cn(C)nn3)N1)OCCc1cc(Cl)sc12 [Compound 1, (2'S, 6'S, 7S)-2-chloro-2'-methyl-6'-(1-methyltriazol-4-yl)spiro[4,5-dihydrothieno[2,3-c]pyran-7,4'-piperidine]]
IC90 [1]: < 50 nM | Emax [2]: 99.3%

C[C@H]1C[C@@]2(C[C@@H](c3cn(C)nn3)N1)OCCc1cc(C(F)(F)F)sc12 [Compound 2, (2'S,6'S,7S)-2'-methyl-6'-(1-methyltriazol-4-yl)-2-(trifluoromethyl)spiro[4,5-dihydrothieno[2,3-c]pyran-7,4'-piperidine]]
IC90 [1]: < 50 nM | Emax [2]: 100%

CCc1cc2c(s1)CCO[C@@]21C[C@@H](c2cnn(CCS(C)(=O)=O)c2)N[C@@H](C)C1 [Compound 5]
IC90 [1]: 50 to 500 nM | Multi-Tox Assay Max Activity (%) [2]: 100.0%

C[C@H]1C[C@@]2(C[C@@H](c3cn(C)nn3)N1)OCCc1sc(C(F)(F)F)cc12 [Compound 8, (2'S,4S,6'S)-2'-methyl-6'-(1-methyltriazol-4-yl)-2-(trifluoromethyl)spiro[6,7-dihydrothieno[3,2-c]pyran-4,4'-piperidine]]
IC90 [1]: < 50 nM | Multi-Tox Assay Max Activity (%) [2]: 100.0%

CC1CC2(CC(c3cnn(CCS(C)(=O)=O)c3)N1)OCCc1sc(C(F)(F)F)cc12 (centres unmarked) [Compound 9]
IC90 [1]: 50 to 500 nM | Multi-Tox Assay Max Activity (%) [2]: 100.0%
